Data reported in patent publication US5459131A, “Renin inhibitors” (American Cyanamid Company, priority 1991, dated 1995).

The substances below were run against T1, human kidney renin (Homo sapiens, UniProt P00797) (assay: Radioimmunoassay screen for renin inhibitors (angiotensin I generation, then RIA quantitation)). Settings: purified human plasma angiotensinogen substrate, maleate buffer pH 6.0, 1 hour at 37° C.; read-out: Renin Inhibition IC50 Molar Concentration.
T1 construct: Human renin is prepared from human kidney; from tissue; host or cells: human kidney
T1 sequence (P00797 67-406): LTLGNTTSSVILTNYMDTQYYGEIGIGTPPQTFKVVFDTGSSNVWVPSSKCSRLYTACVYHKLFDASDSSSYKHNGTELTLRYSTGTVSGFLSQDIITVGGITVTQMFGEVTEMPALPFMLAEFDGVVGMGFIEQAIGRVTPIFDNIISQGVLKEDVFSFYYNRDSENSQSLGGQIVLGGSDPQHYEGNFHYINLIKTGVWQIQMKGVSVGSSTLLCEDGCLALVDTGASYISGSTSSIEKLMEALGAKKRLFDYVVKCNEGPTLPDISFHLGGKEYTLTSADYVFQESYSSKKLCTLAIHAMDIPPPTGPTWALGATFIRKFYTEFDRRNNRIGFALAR
Type: biochemical
Method: Radioimmunoassay Screen For Renin Inhibitors
The in vitro method for the screening of anti-renin compounds involves, first, angiotensin I generation, and second, the quantitation of the angiotensin I produced by radioimmunoassay.
The incubation medium consisted of 20 μl of purified human plasma angiotensinogen; (1) 10 μl of human kidney renin; (2) 5 μl of phenylmethylsulfonyl fluoride; 10 μl of disodium EDTA (10 mM); 10 μl of antirenin compound (5×10^-3 M, 5×10^-4 M, 5×10^-5 M) in dimethylformamide, or ethanol and a suitable amount of maleate buffer (77 mM, pH 6.0) to make a final volume of 500 μl . The reaction mixture is incubated for one hour at 37° C. and the enzymatic reaction is stopped by placing the tube in ice-cold water. The angiotensin I generated during the incubation is measured by a radioimmunoassay plasma renin activity kit (Clinical Assays, Inc.).
Radioimmunoassay Procedure
The incubation medium consisted of either 100 μl aliquots of the above reaction mixture or a standard amount of angiotensin I; 1000 μl of phosphate buffer (100 mM, pH 7.6) and 100 μl of (^125 I) angiotensin in a gamma-coat tube. After three hours of incubation at room temperature, the tubes are decanted, and the radioactivity of each tube is determined in a gamma counter. Duplicate determinations are performed for each incubation. The results are expressed in ng of angiotensin I generated per ml of generation medium per hour of incubation (ng/AI/ml/hr).
The results of this test on representative compounds of this invention appear in Table I, expressed as an IC50.
(1) The human plasma angiotensinogen derived from the blood of a person receiving oral contraceptive pills is purified by chromatography on a pepstatinaminohexyl-agarose column.
(2) Human renin is prepared from human kidney.

Substance | IC50 [nM]
[S-(R*,R*)]4,7-anhydro-2-[[2-[[4-(2-benzofuranyl)-1,4-dioxo-2-(phenylmethyl)butyl]amino]-3-(1H-imidazol-4-yl)-1-oxopropyl]amino]-1-cyclohexyl-1,2,5,6-tetradeoxy-L-arabino-Heptitol | 42
[S-(R*,R*)]-4,7-anhydro-1-cyclohexyl-1,2,5,6-tetradeoxy-2-[[4-methyl-2-[[4-[3-[(methylamino)sulfonyl]phenyl]-1,4-dioxo-2-(phenylmethyl)buyhl]amino]-1-oxopentyl]amino]-L-arabino-Heptitol | 71
[S-(R*,S*)]-1-cyclohexyl-2-[[2-[[1,4-dioxo-4-phenyl-2-(phenylmethyl)butyl]amino]-4-methyl-1-oxopentyl]amino]-4,7-epithio-1,2,4,5,6,7-hexadeoxy-L-arabino-Heptitol, (R and S)-S-oxide | 8.3
[S-(R*,S*)]-4,7-anhydro-1-cyclohexyl-1,2,5,6-tetradeoxy-2-[[2-[[1,4-dioxo-2-(phenylmethyl)-4-(2-thienyl)butyl]amino]-4-methyl-1-oxo-pentyl]amino]-L-arabino-Heptitol | 0.08

More lines, now with the values ahead:

IC50 [nM] | Substance
1.5 | [S-(R*,S*)[-4,7-anhydro-2-[[2-[[4-(2-benzofuranyl)-1,4-dioxo-2-(phenylmethyl)butyl]amino]-3-(1H-imidazol-4-yl)-1-oxopropyl]amino]-1-cyclohexyl-1,2,5,6-tetradeosy-L-arabino-Heptitol
12 | [S-(R*,S*)]-1-cyclohexyl-1,2,4,5,6,7-hexadeoxy-2-[[2-[[1,4-dioxo-4-phenyl-2-(phenylmethyl)butyl]amino]-4-methyl-1-oxopentyl]amino]-4,7-epithio-L-arabino-Heptitol, [R (or S)]-S-oxide
2.4 | [S-(R*,S*)]-4,7-anhydro-1-cyclohexyl-1,2,5,6-tetradeoxy-2-[[4-methyl-2-[[4-[3-[(methylamino)sulfonyl]phenyl]-1,4-dioxo-2-(phenylmethyl)butyl]amino]-1-oxopentyl]amino]-L-arabino-Heptitol
470 | [S-(R*,S*)]-4,7-anhydro-1-cyclohexyl-1,2,5,6-tetradoxy-2-[[2-[[1,4-dioxo-4-phenyl-2-(phenylmethyl)butyl]amino]-4-methyl-1-oxopentyl]amino]-D-xylo-Heptitol
